# Measured values reported in US10610522B2, “Methods for retreating irritable bowel syndrome (IBS)” (Salix Pharmaceuticals, Inc., priority 2014, dated 2020).
# Like-named read-outs stand apart in the source and are kept apart here.
# What was measured:
# non-constipation IBS = test: Combined first and second studies (TARGET 1 and 2): pooled efficacy, sustained response and recurrence; type: in vivo, human; conditions: for Recurrence, Abdominal Pain: % of subjects / Recurrence, Abdominal Pain: number of subjects / Recurrence, Stool Consistency: % of subjects / Recurrence, Stool Consistency: number of subjects / No Recurrence, Abdominal Pain & Stool Consistency: % of subjects / No Recurrence, Abdominal Pain & Stool Consistency: number of subjects / No Recurrence, Abdominal Pain: % of subjects / No Recurrence, Abdominal Pain: number of subjects / No Recurrence, Stool Consistency: % of subjects / No Recurrence, Stool Consistency: number of subjects / Recurrence, Abdominal Pain & Stool Consistency: % of subjects / Recurrence, Abdominal Pain & Stool Consistency: number of subjects: N = 624; for Abdominal Pain or Stool Consistency, No Recurrence / Abdominal Pain or Stool Consistency, Recurrence: Rifaximin (N = 624), n (%)
# Procedure: A measure of efficacy is based on subjects' answers to the Weekly Subject Global Assessment (SGA) questions over the study duration in relation to their IBS symptoms.
# An evaluation of the enrolled subjects was carried out after the Primary Evaluation Period in the study described in Examples 5-7. […] Subjects with no recurrence are defined as having a stool consistency score of less than 4, abdominal pain reduced by at least 30 percent or both.
# CYP3A4 [1] = molecular target: CYP3A4 (Homo sapiens, UniProt P08684); test: In vitro cytochrome P450 inhibition; type: biochemical; conditions: 2 to 200 ng/mL
# Chain of CYP3A4 (Homo sapiens, UniProt P08684) (P08684 whole entry): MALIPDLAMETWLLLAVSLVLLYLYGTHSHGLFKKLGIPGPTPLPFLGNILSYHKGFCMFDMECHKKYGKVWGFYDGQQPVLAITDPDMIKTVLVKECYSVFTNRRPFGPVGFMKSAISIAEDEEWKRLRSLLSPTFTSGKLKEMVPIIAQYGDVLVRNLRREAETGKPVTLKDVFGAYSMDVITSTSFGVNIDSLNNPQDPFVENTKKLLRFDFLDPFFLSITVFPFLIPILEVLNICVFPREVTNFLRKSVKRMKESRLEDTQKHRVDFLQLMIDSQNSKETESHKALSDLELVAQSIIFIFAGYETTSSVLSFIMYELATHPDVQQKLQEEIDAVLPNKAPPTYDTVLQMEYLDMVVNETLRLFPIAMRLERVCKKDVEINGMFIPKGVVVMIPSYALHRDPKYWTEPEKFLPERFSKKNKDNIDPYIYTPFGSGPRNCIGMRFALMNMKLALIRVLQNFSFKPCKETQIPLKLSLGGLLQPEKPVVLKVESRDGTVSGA
# [2] = Rifaximin systemic exposure/pharmacokinetics in healthy subjects, IBS subjects and liver impaired subjects; type: in vivo, human; conditions: for AUC / Cmax / half-life / Tmax / AUC(0-inf): human, plasma; for Tmax: read-out: Tmax, Median (range); for AUC(0-inf): po, single 550 mg oral dose, read-out: Mean AUC0-∞
# Procedure: Subjects with non-c-IBS had mean AUCtau values following a single dose and multiple TID doses of 9.69 ng·h/mL and 16.0 ng·h/mL, respectively, reflecting an accumulation ratio (Rc; multiple-dose AUCtau/single-dose AUCtau) of […]. In subjects with liver impairment, systemic exposure is higher than that observed in healthy subjects or subjects with non-constipation irritable bowel syndrome, but low nonetheless.
# Pharmacokinetic parameters were measured after a single dose and multiple doses (14 days).
# rabbit fetuses = test: Developmental toxicity in pregnant rabbits; type: in vivo
# CYP3A4 [3] = test: CYP3A4 induction study
smiles,measurement,setting,value
"CO[C@H]1/C=C/O[C@@]2(C)Oc3c(C)c(O)c4c(O)c(c5c(nc6cc(C)ccn65)c4c3C2=O)NC(=O)/C(C)=C\C=C\[C@H](C)[C@H](O)[C@@H](C)[C@@H](O)[C@@H](C)[C@H](OC(C)=O)[C@@H]1C [Rifaximin, (2S,16Z,18E,20S,21S,22R,23R,24R,25S,26S,27S,28E)-5,6,21,23,25 Pentahydroxy-27-methoxy-2,4,11,16,20,22,24,26-octamethyl-2,7-(epoxypentadeca-(1,11,13)trienimino) benzofuro (4,5-e) pyrido(1,2-a) benzimidazole-1,15(2H)-dione,25-acetate]","Recurrence, Abdominal Pain: % of subjects",non-constipation IBS; Rolling 4 Weeks: 7-10 Weeks,2.4%
same,"Recurrence, Abdominal Pain: number of subjects",non-constipation IBS; Rolling 4 Weeks: 7-10 Weeks,15
same,"Recurrence, Stool Consistency: % of subjects",non-constipation IBS; Rolling 4 Weeks: 7-10 Weeks,1.4%
same,"Recurrence, Stool Consistency: number of subjects",non-constipation IBS; Rolling 4 Weeks: 7-10 Weeks,9
same,"No Recurrence, Abdominal Pain & Stool Consistency: % of subjects",non-constipation IBS; Rolling 4 Weeks: 8-11 Weeks,(37.3%)
same,"No Recurrence, Abdominal Pain & Stool Consistency: number of subjects",non-constipation IBS; Rolling 4 Weeks: 8-11 Weeks,233
same,"No Recurrence, Abdominal Pain: % of subjects",non-constipation IBS; Rolling 4 Weeks: 8-11 Weeks,(40.2%)
same,"No Recurrence, Abdominal Pain: number of subjects",non-constipation IBS; Rolling 4 Weeks: 8-11 Weeks,251
same,"No Recurrence, Stool Consistency: % of subjects",non-constipation IBS; Rolling 4 Weeks: 8-11 Weeks,(71.5%)
same,"No Recurrence, Stool Consistency: number of subjects",non-constipation IBS; Rolling 4 Weeks: 8-11 Weeks,446
same,"Recurrence, Abdominal Pain & Stool Consistency: % of subjects",non-constipation IBS; Rolling 4 Weeks: 8-11 Weeks,2.2%
same,"Recurrence, Abdominal Pain & Stool Consistency: number of subjects",non-constipation IBS; Rolling 4 Weeks: 8-11 Weeks,14
same,"Recurrence, Abdominal Pain: % of subjects",non-constipation IBS; Rolling 4 Weeks: 8-11 Weeks,2.2%
same,"Recurrence, Abdominal Pain: number of subjects",non-constipation IBS; Rolling 4 Weeks: 8-11 Weeks,14
same,"Recurrence, Stool Consistency: % of subjects",non-constipation IBS; Rolling 4 Weeks: 8-11 Weeks,0.5%
same,"Recurrence, Stool Consistency: number of subjects",non-constipation IBS; Rolling 4 Weeks: 8-11 Weeks,3
same,"No Recurrence, Abdominal Pain & Stool Consistency: % of subjects",non-constipation IBS; Rolling 4 Weeks: 9-12 Weeks,(35.1%)
same,"No Recurrence, Abdominal Pain & Stool Consistency: number of subjects",non-constipation IBS; Rolling 4 Weeks: 9-12 Weeks,219
same,"No Recurrence, Abdominal Pain: % of subjects",non-constipation IBS; Rolling 4 Weeks: 9-12 Weeks,(38.0%)
same,"No Recurrence, Abdominal Pain: number of subjects",non-constipation IBS; Rolling 4 Weeks: 9-12 Weeks,237
same,"No Recurrence, Stool Consistency: % of subjects",non-constipation IBS; Rolling 4 Weeks: 9-12 Weeks,(71.0%)
same,"No Recurrence, Stool Consistency: number of subjects",non-constipation IBS; Rolling 4 Weeks: 9-12 Weeks,443
same,"Recurrence, Abdominal Pain & Stool Consistency: % of subjects",non-constipation IBS; Rolling 4 Weeks: 9-12 Weeks,1.9%
same,"Recurrence, Abdominal Pain & Stool Consistency: number of subjects",non-constipation IBS; Rolling 4 Weeks: 9-12 Weeks,12
same,"Recurrence, Abdominal Pain: % of subjects",non-constipation IBS; Rolling 4 Weeks: 9-12 Weeks,2.2%
same,"Recurrence, Abdominal Pain: number of subjects",non-constipation IBS; Rolling 4 Weeks: 9-12 Weeks,14
same,"Recurrence, Stool Consistency: % of subjects",non-constipation IBS; Rolling 4 Weeks: 9-12 Weeks,2.1%
same,"Recurrence, Stool Consistency: number of subjects",non-constipation IBS; Rolling 4 Weeks: 9-12 Weeks,13
same,"Abdominal Pain or Stool Consistency, No Recurrence",non-constipation IBS; Rolling 5-8 Weeks,234 (37.5%)
same,"Abdominal Pain or Stool Consistency, Recurrence",non-constipation IBS; Rolling 5-8 Weeks,16 (2.6%)
same,"Abdominal Pain or Stool Consistency, No Recurrence",non-constipation IBS; Rolling 6-9 Weeks,218 (34.9%)
same,"Abdominal Pain or Stool Consistency, Recurrence",non-constipation IBS; Rolling 6-9 Weeks,10 (1.6%)
same,"Abdominal Pain or Stool Consistency, No Recurrence",non-constipation IBS; Rolling 7-10 Weeks,208 (33.3%)
same,"Abdominal Pain or Stool Consistency, Recurrence",non-constipation IBS; Rolling 7-10 Weeks,10 (1.6%)
same,"Abdominal Pain or Stool Consistency, No Recurrence",non-constipation IBS; Rolling 8-11 Weeks,198 (31.7%)
same,"Abdominal Pain or Stool Consistency, Recurrence",non-constipation IBS; Rolling 8-11 Weeks,8 (1.3%)
same,"Abdominal Pain or Stool Consistency, No Recurrence",non-constipation IBS; Rolling 9-12 Weeks,190 (30.4%)
same,"Abdominal Pain or Stool Consistency, Recurrence",non-constipation IBS; Rolling 9-12 Weeks,10 (1.6%)
same,Inhibition of CYP3A4,CYP3A4 [1],does not inhibit
same,AUC,"[2]; 550 mg, 550 mg BID repeat dosing, Child Pugh B, read-out: Mean steady-state AUCtau",161 ng·h/mL
same,AUC,"[2]; 550 mg, 550 mg BID repeat dosing, Child-Pugh A, read-out: Mean steady-state AUCtau",118 ng·h/mL
same,AUC,"[2]; 550 mg, 550 mg BID repeat dosing, Child-Pugh C, read-out: Mean steady-state AUCtau",246 ng·h/mL
same,AUC,"[2]; 550 mg, multiple-dose TID, healthy subjects, read-out: Mean AUCtau, steady-state",9.3 ng·h/mL
same,AUC,"[2]; 550 mg, subjects with non-c-IBS, multiple TID doses, read-out: Mean AUCtau",16 ng·h/mL
same,AUC,"[2]; 550 mg, subjects with non-c-IBS, single dose, read-out: Mean AUCtau",9.69 ng·h/mL
same,AUC,"[2]; multiple-dose BID, healthy subjects, read-out: Mean AUCtau, steady-state",12.3 ng·h/mL
same,AUC,"[2]; oral, 550 mg, 550 mg BID, Child-Pugh C, read-out: Mean steady-state AUCtau",257 ng·h/mL
same,Cmax,"[2]; oral, 550 mg, 550 mg BID, Child-Pugh C, read-out: Mean steady-state Cmax",39.7 ng/mL
same,half-life,"[2]; oral, 550 mg, Child-Pugh C subjects, read-out: Mean half-life (converted)",6.35 h
same,AUC,"[2]; oral, 550 mg, Healthy Subjects, 550 mg Multiple-Dose TID (Day 14), N = 14, read-out: AUCtau, mean (SD)",9.3 ng·h/mL
same,Cmax,"[2]; oral, 550 mg, Healthy Subjects, 550 mg Multiple-Dose TID (Day 14), N = 14, read-out: Cmax, mean (SD)",2.39 ng/mL
same,half-life,"[2]; oral, 550 mg, Healthy Subjects, 550 mg Multiple-Dose TID (Day 14), N = 14, read-out: Half-life, harmonic mean (pseudo SD) (converted)",5.63 h
same,Tmax,"[2]; oral, 550 mg, Healthy Subjects, 550 mg Multiple-Dose TID (Day 14), N = 14",1 h
same,AUC,"[2]; oral, 550 mg, Healthy Subjects, 550 mg Single-Dose (Day 1), N = 12, read-out: AUCtau, mean (SD)",10.4 ng·h/mL
same,Cmax,"[2]; oral, 550 mg, Healthy Subjects, 550 mg Single-Dose (Day 1), N = 12, read-out: Cmax, mean (SD)",4.04 ng/mL
same,half-life,"[2]; oral, 550 mg, Healthy Subjects, 550 mg Single-Dose (Day 1), N = 12, read-out: Half-life, harmonic mean (pseudo SD) (converted)",1.83 h
same,Tmax,"[2]; oral, 550 mg, Healthy Subjects, 550 mg Single-Dose (Day 1), N = 12",0.75 h
same,AUC,"[2]; oral, 550 mg, IBS-D Patients, 550 mg Multiple-Dose TID (Day 14), N = 24, read-out: AUCtau, mean (SD)",16 ng·h/mL
same,Cmax,"[2]; oral, 550 mg, IBS-D Patients, 550 mg Multiple-Dose TID (Day 14), N = 24, read-out: Cmax, mean (SD)",4.22 ng/mL
same,half-life,"[2]; oral, 550 mg, IBS-D Patients, 550 mg Multiple-Dose TID (Day 14), N = 24, read-out: Half-life, harmonic mean (pseudo SD) (converted)",6.08 h
same,Tmax,"[2]; oral, 550 mg, IBS-D Patients, 550 mg Multiple-Dose TID (Day 14), N = 24",1 h
same,AUC,"[2]; oral, 550 mg, IBS-D Patients, 550 mg Single-Dose (Day 1), N = 24, read-out: AUCtau, mean (SD)",9.69 ng·h/mL
same,Cmax,"[2]; oral, 550 mg, IBS-D Patients, 550 mg Single-Dose (Day 1), N = 24, read-out: Cmax, mean (SD)",3.49 ng/mL
same,half-life,"[2]; oral, 550 mg, IBS-D Patients, 550 mg Single-Dose (Day 1), N = 24, read-out: Half-life, harmonic mean (pseudo SD) (converted)",3.14 h
same,Tmax,"[2]; oral, 550 mg, IBS-D Patients, 550 mg Single-Dose (Day 1), N = 24",0.775 h
same,Cmax,"[2]; oral, 550 mg, single 550-mg dose, fasted healthy subjects, read-out: Cmax",4.1 ng/mL
same,AUC(0-inf),"[2]; 550 mg, fasted healthy subjects",11.1 ng·h/mL
same,AUC(0-inf),"[2]; 550 mg, fed healthy subjects",22.5 ng·h/mL
same,Systemic absorption,[2]; regardless of food intake or presence of GI disease,< 0.4%
same,Additional fetal malformations,rabbit fetuses; fetal rabbits,"cleft palate, lumbar scoliosis, brachygnathia, interventricular septal defect, and large atrium"
same,Fetal malformations,"rabbit fetuses; pregnant rabbits, dose levels that caused reduced body weight gain",eye malformations
same,CYP3A4 induction,CYP3A4 [3],induces CYP3A4
